Test results published in ChEMBL document CHEMBL1201862, “PubChem BioAssay data set” (2004).
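Growth conditions: 96-well plates. Treatment: test compound, 48 hours, 5 concentrations. Analysis: linear interpolation between bracketing concentrations; unreached endpoints set to highest concentration. GI50 is the concentration that inhibits growth by half.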 Calls of active or inactive are those of the source. Cut-off read from the data, not from the text of the source: active = GI50 up to about 1.1 µM and inactive = higher.

What was measured:
Experiment in all cases: NCI-60 cell line screen, 48 h
ACHN = test system: ACHN
KM12 = test system: KM12
UO-31 = test system: UO-31
SW-620 = test system: SW-620
NCI-H226 = test system: NCI-H226
UACC-257 = test system: UACC-257
Malme-3M = test system: Malme-3M
SF-539 = test system: SF-539
HCT-116 = test system: HCT-116
A498 = test system: A498
CAKI-1 = test system: CAKI-1
SK-MEL-28 = test system: SK-MEL-28
BT-549 = test system: BT-549
CCRF-CEM = test system: CCRF-CEM
HCT-15 = test system: HCT-15
MOLT-4 = test system: MOLT-4
NCI/ADR-RES = test system: NCI/ADR-RES
LOX IMVI = test system: LOX IMVI
SF-268 = test system: SF-268
SNB-19 = test system: SNB-19
UACC-62 = test system: UACC-62
HOP-92 = test system: HOP-92
RXF 393 = test system: RXF 393
EKVX = test system: EKVX
DU-145 = test system: DU-145
SNB-75 = test system: SNB-75
OVCAR-3 = test system: OVCAR-3
MCF7 = test system: MCF7
U-251 = test system: U-251
PC-3 = test system: PC-3
MDA-MB-435 = test system: MDA-MB-435
OVCAR-5 = test system: OVCAR-5
SK-OV-3 = test system: SK-OV-3
IGROV-1 = test system: IGROV-1
Hs-578T = test system: Hs-578T
SF-295 = test system: SF-295
K562 = test system: K562
A549 = test system: A549
M14 = test system: M14
HCC 2998 = test system: HCC 2998
NCI-H23 = test system: NCI-H23
TK-10 = test system: TK-10
MDA-MB-231 = test system: MDA-MB-231
HL-60 = test system: HL-60
786-0 = test system: 786-0
HT-29 = test system: HT-29
MDA-N = test system: MDA-N
NCI-H522 = test system: NCI-H522
SK-MEL-5 = test system: SK-MEL-5
OVCAR-8 = test system: OVCAR-8
OVCAR-4 = test system: OVCAR-4
SK-MEL-2 = test system: SK-MEL-2
HOP-62 = test system: HOP-62
SN12C = test system: SN12C
COLO 205 = test system: COLO 205
RPMI-8226 = test system: RPMI-8226
SR = test system: SR
T47D = test system: T47D
NCI-H460 = test system: NCI-H460

CC(NNC(=O)c1cc[n+]([BH2-]C#N)cc1)c1ccc(Cl)c(Cl)c1 (stereo not drawn)
GI50 (ACHN): 24.3 µM (inactive) | GI50 (KM12): 40.5 µM (inactive) | GI50 (UO-31): 30 µM (inactive) | GI50 (SW-620): 45.1 µM (inactive) | GI50 (NCI-H226): 22.4 µM (inactive) | GI50 (UACC-257): 36.3 µM (inactive) | GI50 (Malme-3M): 30.9 µM (inactive) | GI50 (SF-539): 38.9 µM (inactive) | GI50 (HCT-116): 32.1 µM (inactive) | GI50 (A498): 33.7 µM (inactive) | GI50 (CAKI-1): 18.1 µM (inactive) | GI50 (SK-MEL-28): 40.8 µM (inactive) | GI50 (BT-549): 27.9 µM (inactive) | GI50 (CCRF-CEM): 37.1 µM (inactive) | GI50 (HCT-15): 31.6 µM | GI50 (MOLT-4): 25.9 µM (inactive) | GI50 (NCI/ADR-RES): 30.5 µM (inactive) | GI50 (LOX IMVI): 28.9 µM (inactive) | GI50 (SF-268): 39.6 µM (inactive) | GI50 (SNB-19): 38.3 µM (inactive) | GI50 (UACC-62): 29.7 µM (inactive) | GI50 (HOP-92): 20.6 µM (inactive) | GI50 (RXF 393): 38.5 µM (inactive) | GI50 (EKVX): 30.1 µM (inactive) | GI50 (DU-145): 37.8 µM (inactive) | GI50 (SNB-75): 34.8 µM (inactive) | GI50 (OVCAR-3): 26.9 µM (inactive) | GI50 (MCF7): 26.9 µM (inactive) | GI50 (U-251): 40.2 µM (inactive) | GI50 (PC-3): 22.9 µM (inactive) | GI50 (MDA-MB-435): 34.8 µM (inactive) | GI50 (OVCAR-5): 41.3 µM (inactive) | GI50 (SK-OV-3): 27 µM (inactive) | GI50 (IGROV-1): 38.5 µM (inactive) | GI50 (Hs-578T): 28.4 µM (inactive) | GI50 (SF-295): 29.6 µM (inactive) | GI50 (K562): 34.9 µM (inactive) | GI50 (A549): 32.5 µM (inactive) | GI50 (M14): 38.1 µM (inactive) | GI50 (HCC 2998): 42.6 µM (inactive) | GI50 (NCI-H23): 20.7 µM (inactive) | GI50 (TK-10): 28.6 µM (inactive) | GI50 (MDA-MB-231): 24.8 µM (inactive) | GI50 (HL-60): 25.8 µM (inactive) | GI50 (786-0): 47.5 µM (inactive) | GI50 (HT-29): 17.5 µM (inactive) | GI50 (MDA-N): 35.2 µM (inactive) | GI50 (NCI-H522): 21.3 µM (inactive) | GI50 (SK-MEL-5): 19.7 µM (inactive) | GI50 (OVCAR-8): 42.8 µM (inactive) | GI50 (OVCAR-4): 30.9 µM (inactive) | GI50 (SK-MEL-2): 32.2 µM (inactive) | GI50 (HOP-62): 45 µM (inactive) | GI50 (SN12C): 34.5 µM (inactive) | GI50 (COLO 205): 18.9 µM (inactive) | GI50 (RPMI-8226): 33.5 µM (inactive) | GI50 (SR): 36 µM (inactive) | GI50 (T47D): 23.3 µM (inactive) | GI50 (NCI-H460): 27.2 µM (inactive)

CCCC(=O)Nc1cc(/C=C/C(=O)N2C[C@H]3C[C@@]34C2=CC(=O)c2[nH]cc(C)c24)n(C)c1
GI50 (ACHN): < 0.0025 µM (active) | GI50 (KM12): < 0.0025 µM (active) | GI50 (UO-31): 0.00403 µM (active) | GI50 (SW-620): < 0.0025 µM (active) | GI50 (NCI-H226): < 0.0025 µM (active) | GI50 (UACC-257): < 0.0025 µM (active) | GI50 (Malme-3M): < 0.0025 µM (active) | GI50 (SF-539): < 0.0025 µM (active) | GI50 (HCT-116): < 0.0025 µM (active) | GI50 (A498): < 0.0025 µM (active) | GI50 (CAKI-1): < 0.0025 µM (active) | GI50 (SK-MEL-28): < 0.0025 µM (active) | GI50 (BT-549): < 0.0025 µM (active) | GI50 (CCRF-CEM): < 0.0025 µM (active) | GI50 (HCT-15): 0.0103 µM | GI50 (MOLT-4): < 0.0025 µM (active) | GI50 (NCI/ADR-RES): 0.00982 µM (active) | GI50 (LOX IMVI): < 0.0025 µM (active) | GI50 (SF-268): < 0.0025 µM (active) | GI50 (SNB-19): 0.00593 µM (active) | GI50 (UACC-62): < 0.0025 µM (active) | GI50 (HOP-92): < 0.0025 µM (active) | GI50 (RXF 393): < 0.0025 µM (active) | GI50 (EKVX): < 0.0025 µM (active) | GI50 (DU-145): < 0.0025 µM (active) | GI50 (SNB-75): < 0.0025 µM (active) | GI50 (OVCAR-3): < 0.0025 µM (active) | GI50 (MCF7): < 0.0025 µM (active) | GI50 (U-251): < 0.0025 µM (active) | GI50 (PC-3): < 0.0025 µM (active) | GI50 (MDA-MB-435): < 0.0025 µM (active) | GI50 (OVCAR-5): < 0.0025 µM (active) | GI50 (SK-OV-3): 0.00401 µM (active) | GI50 (IGROV-1): < 0.0025 µM (active) | GI50 (Hs-578T): 0.00273 µM (active) | GI50 (SF-295): < 0.0025 µM (active) | GI50 (K562): < 0.0025 µM (active) | GI50 (A549): 0.00395 µM (active) | GI50 (M14): < 0.0025 µM (active) | GI50 (HCC 2998): < 0.0025 µM (active) | GI50 (NCI-H23): < 0.0025 µM (active) | GI50 (TK-10): < 0.0025 µM (active) | GI50 (MDA-MB-231): < 0.0025 µM (active) | GI50 (HL-60): < 0.0025 µM (active) | GI50 (786-0): < 0.0025 µM (active) | GI50 (HT-29): < 0.0025 µM (active) | GI50 (MDA-N): < 0.0025 µM (active) | GI50 (NCI-H522): < 0.0025 µM (active) | GI50 (SK-MEL-5): < 0.0025 µM (active) | GI50 (OVCAR-8): < 0.0025 µM (active) | GI50 (OVCAR-4): < 0.0025 µM (active) | GI50 (SK-MEL-2): < 0.0025 µM (active) | GI50 (HOP-62): < 0.0025 µM (active) | GI50 (SN12C): < 0.0025 µM (active) | GI50 (COLO 205): < 0.0025 µM (active) | GI50 (RPMI-8226): 0.0161 µM (active) | GI50 (SR): < 0.0025 µM (active) | GI50 (T47D): < 0.0025 µM (active) | GI50 (NCI-H460): < 0.0025 µM (active)
